One may read the pKa as the pH at which an ionisable group is half protonated. A low value points to a stronger acid or weaker base. Usually IC50 stands for the point on the concentration scale where inhibition reaches its midpoint. Low readings indicate greater potency, high ones weaker potency. What is called EC50 is the concentration giving half of the maximal effect. For orientation: inhibition means the share of the control response that was lost under treatment. Broadly, the logP is the decadic logarithm of the partition coefficient of the neutral form, usually between octanol and water.

The results in this text go back to ChEMBL document CHEMBL4616613, “Phosphine boranes as less hydrophobic building blocks than alkanes and silanes: Structure-property relationship and estrogen-receptor-modulating potency of 4-phosphinophenol derivatives” (Bioorg Med Chem, 2020).

Molecules are shown by their SMILES.

Data set [1] is described as follows: physchem.
Description: Acid dissociation constant, pKa of the compound by UV spectral absorption analysis
Data set [2] concerns the target T1, Estrogen receptor (Homo sapiens, UniProt P03372).
T1 sequence (P03372 whole entry): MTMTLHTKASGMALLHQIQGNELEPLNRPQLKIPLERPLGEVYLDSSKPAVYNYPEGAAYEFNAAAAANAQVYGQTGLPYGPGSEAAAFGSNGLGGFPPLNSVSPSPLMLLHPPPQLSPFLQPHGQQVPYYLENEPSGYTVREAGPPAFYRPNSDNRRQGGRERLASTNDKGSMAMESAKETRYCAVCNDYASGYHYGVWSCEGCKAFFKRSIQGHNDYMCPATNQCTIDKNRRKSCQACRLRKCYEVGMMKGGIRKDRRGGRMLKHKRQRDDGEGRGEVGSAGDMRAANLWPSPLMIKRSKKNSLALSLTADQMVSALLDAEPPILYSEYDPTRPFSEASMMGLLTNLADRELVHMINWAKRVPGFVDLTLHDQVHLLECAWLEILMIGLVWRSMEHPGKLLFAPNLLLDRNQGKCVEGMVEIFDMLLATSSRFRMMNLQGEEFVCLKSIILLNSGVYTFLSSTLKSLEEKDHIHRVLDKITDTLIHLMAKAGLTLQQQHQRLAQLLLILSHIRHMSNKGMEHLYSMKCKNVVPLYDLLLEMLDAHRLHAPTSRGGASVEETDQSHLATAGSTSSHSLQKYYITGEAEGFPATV
The following applies: hek293.
Description: (§1) Antagonist activity at human Gal4-fused ERalpha expressed in HEK293 cells assessed as inhibition of E2-induced transcriptional activation after 24 hrs by luciferase/beta-galactosidase reporter gene assay

Data set [3] addresses T1, Estrogen receptor. The note with it: hek293. The source holds these as a separate data set.
Description: (§2) Agonist activity at human Gal4-fused ERalpha expressed in HEK293 cells assessed as transcriptional activation after 24 hrs by luciferase/beta-galactosidase reporter gene assay
Data set [4] has as its target T2, Estrogen receptor beta (Homo sapiens, UniProt Q92731). Kind of data set: Agonist activity at human Gal4-fused ERbeta expressed in HEK293 cells assessed as transcriptional activation at 30 uM after 24 hrs by luciferase/beta-galactosidase reporter gene assay relative to estradiol. The format is cell-based.
For data set [5], the target named is T2, Estrogen receptor beta. Kind of data set: Antagonist activity at human Gal4-fused ERbeta expressed in HEK293 cells assessed as inhibition of E2-induced transcriptional activation at 30 uM after 24 hrs by luciferase/beta-galactosidase reporter gene assay relative to control. The format is cell-based. In general terms: In a reporter assay the amount or activity of a reporter protein is the signal.

Data set [6] can be described thus: physchem. The note with it: 1-octanol/water.
Description: 1-Octanol-water partition coefficient, log P of the compound by HPLC analysis
The target of data set [7] is T1, Estrogen receptor.
Description: as §1
Data set [8] concerns the target T2, Estrogen receptor beta.
Description: (§3) Antagonist activity at human Gal4-fused ERbeta expressed in HEK293 cells assessed as inhibition of E2-induced transcriptional activation after 24 hrs by luciferase/beta-galactosidase reporter gene assay
The target in data set [9] is T2, Estrogen receptor beta. The note with it: hek293.
Description: as §3
For data set [10], the target named is T1, Estrogen receptor. This is another data set of the same source.
Description: as §2
Data set [11] concerns the target T3, Estrogen receptor (Homo sapiens) (UniProt P03372).
T3 sequence (whole entry): T1 sequence (P03372 whole entry)
Kind of data set: Agonist activity at human Gal4-fused ERalpha expressed in HEK293 cells assessed as transcriptional activation at 30 uM after 24 hrs by luciferase/beta-galactosidase reporter gene assay relative to estradiol. The format is cell-based.

T2 sequence (Q92731 whole entry, the tested form may be a part): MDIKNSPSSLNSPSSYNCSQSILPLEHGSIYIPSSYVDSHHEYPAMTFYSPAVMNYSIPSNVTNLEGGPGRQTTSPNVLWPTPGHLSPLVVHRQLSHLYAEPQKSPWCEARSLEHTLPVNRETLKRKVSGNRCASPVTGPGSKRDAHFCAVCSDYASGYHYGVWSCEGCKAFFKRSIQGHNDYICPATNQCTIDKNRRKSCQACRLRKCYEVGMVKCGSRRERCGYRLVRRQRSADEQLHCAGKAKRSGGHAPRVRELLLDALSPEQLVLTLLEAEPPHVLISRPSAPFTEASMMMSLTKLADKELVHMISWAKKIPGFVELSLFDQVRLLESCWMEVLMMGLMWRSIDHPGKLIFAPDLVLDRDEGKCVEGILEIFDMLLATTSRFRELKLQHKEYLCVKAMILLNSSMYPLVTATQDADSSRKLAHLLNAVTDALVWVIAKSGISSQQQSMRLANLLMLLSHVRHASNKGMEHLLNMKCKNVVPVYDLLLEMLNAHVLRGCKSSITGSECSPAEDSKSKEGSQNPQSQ

Compound `CP(=[Se])(c1ccccc1)c1ccc(O)cc1` (stereo unspecified) came in with a pKa in data set [1] of 8.64. For the same compound, the IC50 entry in [2] is on record as “Not Active”. In addition, in data set [3], the half-maximal effective concentration (EC50) entry is recorded as “Not Active”. Also, the Activity in data set [4] was 24%. Further, in data set [5], the inhibition was 30%. In [6], this compound returned a log partition coefficient (logP) of 3.27.

In [1], `B.Oc1ccc(P(c2ccccc2)c2ccccc2)cc1` came in with a pKa of 8.81. Besides, in data set [3], the EC50 result was “Not Active”. In addition, the results for the IC50 in [7] and in data set [8] were 12 µM and 2 µM, respectively. The compound further returned a log partition coefficient (logP) in [6] of 4.96.

Compound `Oc1ccc(P(c2ccccc2)c2ccccc2)cc1` had a pKa in data set [1] of 9.48. In addition, the IC50 result in data set [2] and in [9] was “Not Active” each time. Moreover, the 50% effective concentration (EC50) result in [3] is recorded as “Not Active”. Further, the logP in data set [6] came out at 5.06.

Turning to `CP(c1ccccc1)c1ccc(O)cc1` (stereo unspecified), the pKa in data set [1] came out at 9.49. For the same compound, the half-inhibitory concentration (IC50) entry in data set [2] and in data set [9] was “Not Active” each time. Besides, the EC50 result in data set [3] is on record as “Not Active”. In data set [6], this compound showed a logP of 3.67.

With `CP(=O)(c1ccccc1)c1ccc(O)cc1` (stereo unspecified), the pKa in data set [1] stood at 8.63. Also, the concentration for half-maximal inhibition (IC50) result in data set [2] and in [9] was “Not Active” each time. The compound also had a concentration for a half-maximal effect (EC50) in [10] of 19 µM. Further, the Activity in data set [4] stood at 36%. Further, the lipophilicity (logP) in data set [6] came out at 1.88.

On to `O=P(c1ccccc1)(c1ccccc1)c1ccc(O)cc1`, for which the pKa in data set [1] was 8.51. Also, the half-inhibitory concentration (IC50) entry in [2] and in data set [9] was “Not Active” throughout. In addition, the EC50 entry in data set [3] is recorded as “Not Active”. In [6], this compound came in with a lipophilicity (logP) of 3.22.

For `C[Si](C)(c1ccccc1)c1ccc(O)cc1`, in data set [1], the pKa is 10.2. This compound gave an EC50 in data set [10] of over 30 µM. Also, the Activity in data set [4] worked out at 20%. For the same compound, the IC50 came out at 13 µM in [7] and 5 µM in data set [8]. The compound also yielded a logP in [6] of 4.8.

In data set [1], `Oc1ccc(P(=S)(c2ccccc2)c2ccccc2)cc1` displayed a pKa of 8.6. Also, the EC50 result in [3] is reported as “Not Active”. Further, the half-inhibitory concentration (IC50) is 20 µM in data set [7] and 13 µM in data set [8]. The logP in data set [6] came out at 4.08.

`B.CP(c1ccccc1)c1ccc(O)cc1` (stereo unspecified) [listing 1 of 2 here] yielded a pKa in data set [1] of 8.83. Besides, the EC50 result in data set [3] is “Not Active”. Further, the IC50 came to 9.8 µM in data set [7] and 2.5 µM in data set [8]. In data set [6], this compound returned a log partition coefficient (logP) of 3.38.

In the case of `CC(C)(c1ccccc1)c1ccc(O)cc1`, the pKa in data set [1] was 10.6. Moreover, the concentration giving a half-maximal response (EC50) in [10] worked out at 4.4 µM. The Activity in [4] was determined as 38%. For the same compound, the IC50 in [7] came to 24 µM; in [8], 13 µM. Besides, the logP in data set [6] came to 4.2.

Consider `CP(=S)(c1ccccc1)c1ccc(O)cc1` (stereo unspecified), for which the pKa in [1] is 8.65. Besides, the half-maximal inhibitory concentration (IC50) entry in [2] and in [9] was “Not Active” each time. In addition, the Activity in [4] and in [11] was 24% in each case. The log partition coefficient (logP) in data set [6] turned out to be 2.69.

Consider `B.CP(c1ccccc1)c1ccc(O)cc1` (stereo unspecified) [listing 2 of 2 here], for which the Activity in [4] turned out to be 16%.
